The text below walks through data of US6461613B2, “Methods and compositions for the selective regulation of chorionic prostanoids” (priority 1993, dated 2002).

Ends that are not written are not given here.

For assay [1], the system named is human term placenta. The experiment in a line: Dose-related action of IGF-I on basal prostanoid production from perifused human term placenta. Format: cell-based. On the procedure: The dose-related effect of IGF-I on placental prostanoids was studied with the perifusion system previously described herein. Normal term deliveries were perifused with a defined Medium 199 containing no phenol red nor exogenous hormonal factors other than 100μU/ml of insulin, estradiol (200 ng/ml), progesterone (4000 ng/ml) and dexamethasone (10^−8). These doses were chosen to emulate the normal term placental environment. Replicate chambers for the control (n=4) and treatment (n=3) explants for each placenta were made. Following a five-hour perifusion at 6 ml/hr with basal media, IGF-I (5, 10, 20, 40 or 80 ng/ml) was added to the triplicate chambers and sample collection continued every 30 minutes for another five hours. The average hormonal response for the replicate chambers of the control and the IGF-I treated explants was calculated and then the mean (±SEM) response for the different placentas with and without treatment was computed and the results compared. […] TxB2 was inhibited at even 10 ng/ml of IGF-I.

In assay [2] the test system is human term placenta. The experiment in a line: IGF-I effect on prostanoid and hCG release from perifused human term placental explants. Type of assay: cell-based. The procedure: Term placentas were obtained and processed as described herein. Seven replicate chambers were prepared and each perifused with Medium 199 containing 0.05% BSA, penicillin (100 U/ml), streptomycin (100 μg/ml), estradiol (200 ng/ml), progesterone (2000 ng/ml), dexamethasone (10^−8 M), and insulin (100 μU/ml), at a rate of 6 ml/hour for 10.5 hours. Steroids were first dissolved in ethanol at 10^−4M final concentration and taken to final dilution with BSA-containing medium. This medium is hereafter referred to as Medium 199. These concentrations of steroid were chosen because they are known by those in the obstetrical arts to simulate the intrauterine milieu in vivo in humans. The influx medium was aerated with 95% air and 5% CO2 throughout the perifusion. Perifusion at a rate of 6 ml/hr was performed for […] prior to initiation of sample collection. In this fashion, all tissues were thoroughly washed and equilibrated. Samples were collected every half-hour, beginning at the start of the fourth hour, into 12×75 mm glass tubes containing 0.1 ml indomethacin (1100 μg/ml dimethyl sulfoxide [DMSO]). Collection of the effluent of the seven chambers was done simultaneously, using an ISCO fraction collector Retriever III adapted with a rack having seven tubes and a manifold.
To study the effect of IGF-I on basal prostanoid release, ten minutes prior to the beginning of the fifth hour of the perifusion, Medium 199 in the experimental chambers was changed to Medium 199 containing IGF-I (10^−8 M). This dose of IGF-I was chosen from calculations of the inventor using the Km of the placental receptor for IGF-I. It took ten minutes for the input medium to pass through the perifusion tubing and chamber and to be collected in the sample tube. Three replicated chambers were perifused with experimental medium, whereas, in another four replicated chambers, the perifusion was continued with the control, Medium 199. This experimental design was repeated using placental tissues from three different patients each having a normal pregnancy.
Prostanoid recovery and stability was determined as described in Example 1. Prostanoid radioimmunoassay was also conducted as described in Example 1.
Hormonal values for a given chamber were normalized to the fifth-hour prostanoid or hCG release for that chamber, expressed as a percent release over the fifth-hour release. Because there may be differences in the amount of blood vessels and connective tissue among placental explants, the release expressed per unit weight results in high variance between chambers. […] Thus, the release of each chamber was related to its functional competence at the time of treatment rather than to its mass. The mean release for replicate chambers from a given placenta for each particular hormone in the presence of IGF-I at each time point was calculated and the mean data for each of the three different placentas were averaged at each time point. Thus, each placenta was weighed equally in the statistical analyses. Similar calculations were done for the controls as for the experimental chambers. For each hormone studied, these average normalized data were tested for homogeneity, using Bartlett's test, and if significant deviation was found, the data were log-transformed prior to statistical analysis. Two-way analysis of variance was used to determine if there was significant main effect or interaction.
In addition, the cumulative release for each hormone from each placenta for each treatment was calculated. One-way analysis of variance was used to test for statistical effects of treatment. The points of significant variation were determined using the Student-Newman-Keuls test.

For assay [3], the system named is human term placenta. Description: Effect of dexamethasone and GnRH on prostanoid release from perifused human term placental explants. Format: cell-based. The procedure: Medium 199 (x2) with Earles' Modified Salts, bicarbonate and L-glutamine without phenol red was purchased from Gibco (Chagrin Falls, Ohio). Penicillin, streptomycin, bovine serum albumin and Indomethacin were obtained from Sigma Chemicals (St. Louis, Mo.). Placental perifusion was performed essentially as described in Example 3.
Samples were stored at −20° C. until assayed for PGE, PGF, PGFM, Tx B2 or 6-keto-PGF1α. Recovery and stability of these prostanoids in this perifusion system and during storage were assessed by spiking the medium with prostanoids and perifusing it through empty chambers and collecting samples as described above. In addition, samples were frozen and thawed repeatedly and re-assayed. Prostanoid recovery and stability were nearly 100%. Thus, no data correction for procedural losses was done. Radioimmunoassays were performed as described in Example 1.
The perifusion system described at Examples 2 and 3 was used in the present study. […] It took one hour for the input medium to pass through the perifusion tubing and chamber and to be collected in the sample tube. Four replicated chambers were perifused with each of the three experimental media, while, in another four replicated chambers, the perifusion was continued with the control Medium 199.
Hormonal values for a given chamber were normalized to the fifth-hour prostanoid release for that chamber, expressed as a percent release over the fifth-hour release. […] Thus, the release of each chamber was related to functional competence at the time of treatment rather than to its mass.
The mean release for replicate chambers from a given placenta for each particular hormone in the presence of GnRH, dexamethasone, or GnRH and dexamethasone at each point was calculated. Similar calculations were done for the control chambers. The mean data for each treatment for the three different placentas were subjected to statistical analyses. Thus, the response for each placenta was weighed equally. Two-way analysis of variance was used to determine if there was significant main effect or interaction.
In addition, the cumulative release for each hormone from each placenta for each treatment was calculated. One-way analysis of variance was used to test for statistically significant effects of treatment. The points of significant variation were determined using Student-Newman-Keuls' test.

The test system of assay [4] is human term placenta. Description: Effect of enzyme inhibitors on prostanoid release from perifused human term placental explants (RIA). As to conditions: indomethacin 50 μg/ml. Format: cell-based. On the procedure:
Radioimmunoassays were performed in a fashion similar to what has been previously described (Siler-Khodr et al., 1986, Biol. Reprod., 35:312) which is specifically incorporated herein for this purpose, with specific exception as noted below. A perifusion model (described in Examples 2 and 3) was employed to determine placental cell response. Media collected from the perifusion samples prepared from placental tissues were assayed. […] All the samples from a given perifusion (placenta) were determined in the same assay. At the beginning of the fifth hour of the perifusion, Medium 199 in the experimental chambers was changed to Medium 199 containing quinacrine (10 μM), EDTA (1 mM), NDGA (10 μM) or indomethacin (50 μg/ml). Four replicated chambers were perifused with control medium and each of the experimental media. This experimental design was repeated in three different perifusions using placental tissues from three different patients according to the procedure described in Example 3. […] Term placentas were obtained and placed on ice immediately after vaginal delivery from patients having spontaneous labor and delivery without any known obstetrical or medical complications. Tissues were obtained in accordance with a protocol approved by the Institutional Review Board. Within 30 minutes, the placental tissues were dissected of decidua, chorionic plates and large fetal vessels on ice. The placental tissues were cut into small fragments (approximately 25 pieces having a total weight of approximately 1 g), rinsed free of blood by repeated washing with ice cold normal saline until clear in color, and the tissue fragments placed in a 3-ml tissue chamber, placed in a 37° C. water bath. […] This medium is hereafter referred to as Medium 199. […] Perifusion was performed for two hours prior to initiation of sample collection. In this fashion, all tissues were thoroughly washed and equilibrated. Samples were collected hourly, beginning at the start of the third hour, into 12×75 mm glass tubes containing 0.1 ml indomethacin and 1100 μg/ml dimethyl sulfoxide [DMSO]. It took approximately one hour for the input medium to pass through the perifusion tubing and chamber and to be collected in the sample tube, thus the dead volume of the system was approximately 1 ml. Collection of the effluent of the 20 chambers was done simultaneously, using an ISCO fraction collector Retriever III adapted with a 20-tube rack and manifold. The prostanoid release for a given chamber was expressed as the increase over the fourth-hour prostanoid release for that chamber. Because there may be differences in the amounts of blood vessels and connective tissue among placental explants, the release expressed per unit weight results in high variance between chambers. […] Thus, the release of each chamber was related to its functional competence at the time of treatment rather than its mass. The mean release for replicate chambers from a given placenta for each particular prostanoid in the presence of arachidonic acid or each of the various enzyme inhibitors was calculated and then the mean data for each of the three different placentas was averaged at each time point. Thus, each placenta was weighted equally in the statistical analyses. Two-way analysis of variance of the average response for each prostanoid for each dose of arachidonic acid or each enzyme inhibitor studied, at each time point, was performed. The normalized data were tested for homogeneity using Cohrna's Q test, and no significant deviation was found. Thus, for each prostanoid and each treatment, where there was a significant main effect or interaction, Dunnett's comparison test was applied to determine the point(s) of significant difference as compared to the control. P<0.05 was considered to be statistically significant.

The conditions of assay [5]: on the order of at least; cited from earlier work.
Setting [6] is: seven hours of perifusion, dexamethasone 10^−8 M, GnRH 10^−7 M, compared to control.

Turning to Insulin like growth factor-I [IGF-I], in the assay on human term placenta [1] (IGF-I 10 ng/ml), the “effect on TxB2” value is “inhibited”. The “effect on PGF production” value in the assay with human term placenta [1] (IGF-I 5-80 ng/ml) is on record as “greatly reduced”. The “greatest inhibition of TxB2 production” value in the assay on human term placenta [1] (IGF-I 10^−8 M) is 70 % of the basal release. Also, the “effect on TxB2 production” value in the assay on human term placenta [1] (IGF-I at each dose (5, 10, 20, 40 or 80 ng/ml)) was “statistically significant inhibition”. Besides, the “effect on PGE” value with human term placenta [1] (high dose of IGF-I) is on record as “small reduction”. In the assay on human term placenta [1] (on the order of), the “molar concentration producing a selective pharmacological affect on human placental tissue” value is reported as ~10^−9 molar. Also, in the assay with human term placenta [2] (IGF-I 10^−8 M), the “cumulative release of the other hormones studied (PGE, PGFM, 6-keto-PGF1α, hCG) vs control” value is on record as “no significant change”; the “effect on PGE release” value is given as “not affected”; the “effect on release of hCG compared to controls” value is given as “did not affect”; the hCG release is recorded as 55 % of the fifth-hour release. Also, the PGE release with human term placenta [2] (IGF-I 10^−8 M treated tissues) was 228 % of the fifth-hour release. Further, the “cumulative release of TxB2 vs control” value with human term placenta [2] (IGF-I 10^−8 M, P<0.01) is recorded as “significant reduction”. Further, the “cumulative release of PGF vs control” value in the assay on human term placenta [2] (IGF-I 10^−8 M, P<0.05) is given as “significant reduction”. For the same molecule, the TxB2 release with human term placenta [2] (IGF-I 10^−8 M, by the fifth hour of treatment) was 85 % of the control's release. The molecule further came in with a PGF release with human term placenta [2] (IGF-I 10^−8 M, by the fifth hour of treatment, normalized to fifth-hour release) of 116%. Also, the 6-keto-PGF1α release with human term placenta [2] (IGF-I 10^−8 M, during the five hours) is 146 % of the fifth-hour release. In addition, in the assay on human term placenta [2] (IGF-I 10^−8 M, five hours of perifusion), the “effect on PGFM release” value is recorded as “unchanged”. For the same molecule, the “time to significant inhibition of TxB2 release” value in the assay with human term placenta [2] (IGF-I 10^−8 M, following treatment) was not above 150 min. Also, the “effect on release of 6-keto-PGF1α” value in the assay on human term placenta [2] (IGF-I 10^−8 M, more than five hours) is given as “not significantly altered”. Besides, the “effect on release of PGF” value with human term placenta [2] (IGF-I 10^−8 M, significant from the third hour) is listed as “significantly (P<0.01) inhibited”.

As for “GnRH: gonadotropin-releasing hormone (QHWSYGLRPG; ends and bridges not checked; UniProt P01148 24-33, looked up)”, the “effect on TxB2 release” value with human term placenta [3] (GnRH 10^−7 M, within the first hour, continued throughout perifusion) is recorded as “inhibition”.

`C[C@@H]1C[C@H]2[C@@H]3CCC4=CC(=O)C=C[C@]4(C)[C@@]3(F)[C@@H](O)C[C@]2(C)[C@@]1(O)C(=O)CO` [dexamethasone]: in the assay with human term placenta [3] (dexamethasone 10^−8 M, seventh hour of incubation), the “release as percent of control” value is on record as 68 % of its control release. The “cumulative release of TxB2” value with human term placenta [3] (seven hours of perifusion, dexamethasone 10^−8 M, GnRH 10^−7 M) is on record as 62%±6%. Further, in the assay with human term placenta [3] (setting [6]), the “cumulative release of 6-keto-PGF1α” value is reported as 73%±7%, the “cumulative release of PGE” value is reported as 66%±4% and the “cumulative release of PGF” value is 71%±4%.

Consider `COc1ccc2c(c1)c(CC(=O)O)c(C)n2C(=O)c1ccc(Cl)cc1` [indomethacin], for which, in the assay with human term placenta [4] (after seven hours of perifusion), the PGFM release is listed as 51.8 % of the release from the control. Further, the “PGFM release, effect” value in the assay on human term placenta [4] (after three hours of exposure) is reported as “not inhibited”. For the same molecule, in the assay with human term placenta [4] (continued perifusion), the 6-keto-PGF1α release was 26.3 % of the control, the PGE release is given as 24.0 % of the control, the PGF release is recorded as 9.6 % of the control and the TxB2 release is 30.5 % of the control. In the assay with human term placenta [4] (three hours post-exposure), the 6-keto-PGF1α release is 41.3 % of control, the PGE release is 33.5 % of control, the PGF release was 22.1 % of control and the TxB2 release is recorded as 42.3 % of control. Further, the “molar concentration necessary to produce pharmacological affects” value in assay [5] is recorded as “at least 10^−3 molar (M)”.
